Experimental findings from ChEMBL document CHEMBL1201862, “PubChem BioAssay data set” (2004) are described below.

In experiment [1] the target is Ras and Rab interactor 1/Tyrosine-protein kinase ABL1 (Homo sapiens, UniProt P00519+Q13671). It counts as functional.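 Further: biochemical TR-FRET dose-response test measuring inhibition of binding between Rin1 and Abl proteins.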
Experiment [2] deals with T1, Long-chain-fatty-acid--AMP ligase FadD28 (Mycobacterium tuberculosis, UniProt P9WQ59).
T1 sequence (P9WQ59 whole entry): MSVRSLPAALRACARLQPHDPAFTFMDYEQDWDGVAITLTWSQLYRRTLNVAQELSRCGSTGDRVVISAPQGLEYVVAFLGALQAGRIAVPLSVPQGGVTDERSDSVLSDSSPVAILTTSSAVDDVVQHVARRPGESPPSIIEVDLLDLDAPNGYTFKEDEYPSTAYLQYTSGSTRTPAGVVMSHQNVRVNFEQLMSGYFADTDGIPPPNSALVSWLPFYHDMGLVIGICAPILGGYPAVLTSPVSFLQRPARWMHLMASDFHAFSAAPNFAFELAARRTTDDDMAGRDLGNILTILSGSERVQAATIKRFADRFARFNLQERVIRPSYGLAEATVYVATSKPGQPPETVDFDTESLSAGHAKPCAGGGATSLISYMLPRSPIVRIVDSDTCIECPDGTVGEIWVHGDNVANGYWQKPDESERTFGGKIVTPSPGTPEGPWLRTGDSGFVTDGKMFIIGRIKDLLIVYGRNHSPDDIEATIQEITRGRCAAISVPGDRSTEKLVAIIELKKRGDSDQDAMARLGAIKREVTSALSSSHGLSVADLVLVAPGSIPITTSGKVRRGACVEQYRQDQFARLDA
Briefly: Fluorescence polarization aasay to screen for inhibitors that compete for the binding of FadD28 to a bisubstrate Measured in Biochemical System Using Plate Reader - 2147-01_Inhibitor_Dose_CherryPick_Activity. It counts as functional, Mycobacterium tuberculosis H37Rv.

Experiment [3] addresses T2, DNA repair protein RAD52 homolog (Homo sapiens, UniProt P43351).
T2 sequence (P43351 whole entry): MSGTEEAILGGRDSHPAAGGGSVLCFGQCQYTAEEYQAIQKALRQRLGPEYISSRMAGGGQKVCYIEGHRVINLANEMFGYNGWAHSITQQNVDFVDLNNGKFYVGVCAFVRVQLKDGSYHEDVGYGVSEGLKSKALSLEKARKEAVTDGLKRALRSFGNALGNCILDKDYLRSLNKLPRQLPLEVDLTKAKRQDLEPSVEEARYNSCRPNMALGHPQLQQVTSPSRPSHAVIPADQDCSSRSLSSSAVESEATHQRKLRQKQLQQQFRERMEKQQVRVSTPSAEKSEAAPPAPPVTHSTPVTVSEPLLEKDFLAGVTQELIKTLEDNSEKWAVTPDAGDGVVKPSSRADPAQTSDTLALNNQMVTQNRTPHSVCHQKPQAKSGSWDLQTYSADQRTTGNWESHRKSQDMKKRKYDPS
Type of experiment: functional, biochemical.

The target in experiment [4] is T3, Mannose-6-phosphate isomerase (Homo sapiens, UniProt P34949).
T3 sequence (P34949 whole entry): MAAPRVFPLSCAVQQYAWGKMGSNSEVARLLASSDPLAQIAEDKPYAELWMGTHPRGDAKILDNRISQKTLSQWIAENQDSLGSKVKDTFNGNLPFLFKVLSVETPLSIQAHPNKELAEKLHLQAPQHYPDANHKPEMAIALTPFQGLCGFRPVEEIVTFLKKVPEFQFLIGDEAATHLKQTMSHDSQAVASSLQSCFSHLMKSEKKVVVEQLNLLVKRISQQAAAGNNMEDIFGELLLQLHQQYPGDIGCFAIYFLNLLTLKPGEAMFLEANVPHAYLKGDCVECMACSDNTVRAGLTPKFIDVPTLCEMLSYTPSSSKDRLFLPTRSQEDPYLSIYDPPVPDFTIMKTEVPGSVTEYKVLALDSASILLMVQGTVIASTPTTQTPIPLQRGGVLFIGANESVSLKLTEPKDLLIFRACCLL
The experiment can be described thus: human PMI inhibitors, high substrate, primary screen, biochemical, fluorescence intensity, high mannose 6-phosphate (AID 1220).

Experiment [5] has as its target Prothrombin (Homo sapiens, UniProt P00734). Briefly: Thrombin 1536 HTS Dose Response Confirmation. [Related pubchem assays: 1046 (Thrombin 1536 HTS; hits were confirmed in this assay)]. Type of experiment: functional.
The target in experiment [6] is Eukaryotic translation initiation factor 4E (Mus musculus, UniProt P63073). Briefly: eIF4E–eIF4G protein interaction inhibitors, dose response, biochemical, TR-FRET (AID 855).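 Further: potency for disrupting eIF4E binding to eIF4GI seen as loss of FRET.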 It counts as functional.
For experiment [7], the target named is Voltage-dependent T-type calcium channel subunit alpha-1H (Homo sapiens, UniProt O95180). It counts as functional.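 Further: channel activity triggered by adding a high calcium stimulation buffer.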
Experiment [8] concerns the target Estrogen receptor beta (Homo sapiens, UniProt Q92731).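 Further: recombinant ER-beta bound to coactivator SRC1 peptide in presence of estradiol agonist; inhibitors block coactivator peptide binding and lower the FRET signal.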
Experiment [9] in a line: HEp-2 cell cytotoxicity, dose response, cytotoxicity control for RSV inhibitor project, HTS (AID 2410). It counts as functional. The following applies: human respiratory syncytial virus.
The subject of experiment [10] is Vero. Briefly: cells. It counts as functional, cell-based. The following applies: Chlorocebus sabaeus.
Experiment [11] relates to Vero. The experiment can be described thus: cells. It counts as functional. The following applies: Chlorocebus sabaeus.
Experiment [12] has as its target T4, Histone-lysine N-methyltransferase NSD2 (Homo sapiens, UniProt O96028).
T4 sequence (O96028 whole entry): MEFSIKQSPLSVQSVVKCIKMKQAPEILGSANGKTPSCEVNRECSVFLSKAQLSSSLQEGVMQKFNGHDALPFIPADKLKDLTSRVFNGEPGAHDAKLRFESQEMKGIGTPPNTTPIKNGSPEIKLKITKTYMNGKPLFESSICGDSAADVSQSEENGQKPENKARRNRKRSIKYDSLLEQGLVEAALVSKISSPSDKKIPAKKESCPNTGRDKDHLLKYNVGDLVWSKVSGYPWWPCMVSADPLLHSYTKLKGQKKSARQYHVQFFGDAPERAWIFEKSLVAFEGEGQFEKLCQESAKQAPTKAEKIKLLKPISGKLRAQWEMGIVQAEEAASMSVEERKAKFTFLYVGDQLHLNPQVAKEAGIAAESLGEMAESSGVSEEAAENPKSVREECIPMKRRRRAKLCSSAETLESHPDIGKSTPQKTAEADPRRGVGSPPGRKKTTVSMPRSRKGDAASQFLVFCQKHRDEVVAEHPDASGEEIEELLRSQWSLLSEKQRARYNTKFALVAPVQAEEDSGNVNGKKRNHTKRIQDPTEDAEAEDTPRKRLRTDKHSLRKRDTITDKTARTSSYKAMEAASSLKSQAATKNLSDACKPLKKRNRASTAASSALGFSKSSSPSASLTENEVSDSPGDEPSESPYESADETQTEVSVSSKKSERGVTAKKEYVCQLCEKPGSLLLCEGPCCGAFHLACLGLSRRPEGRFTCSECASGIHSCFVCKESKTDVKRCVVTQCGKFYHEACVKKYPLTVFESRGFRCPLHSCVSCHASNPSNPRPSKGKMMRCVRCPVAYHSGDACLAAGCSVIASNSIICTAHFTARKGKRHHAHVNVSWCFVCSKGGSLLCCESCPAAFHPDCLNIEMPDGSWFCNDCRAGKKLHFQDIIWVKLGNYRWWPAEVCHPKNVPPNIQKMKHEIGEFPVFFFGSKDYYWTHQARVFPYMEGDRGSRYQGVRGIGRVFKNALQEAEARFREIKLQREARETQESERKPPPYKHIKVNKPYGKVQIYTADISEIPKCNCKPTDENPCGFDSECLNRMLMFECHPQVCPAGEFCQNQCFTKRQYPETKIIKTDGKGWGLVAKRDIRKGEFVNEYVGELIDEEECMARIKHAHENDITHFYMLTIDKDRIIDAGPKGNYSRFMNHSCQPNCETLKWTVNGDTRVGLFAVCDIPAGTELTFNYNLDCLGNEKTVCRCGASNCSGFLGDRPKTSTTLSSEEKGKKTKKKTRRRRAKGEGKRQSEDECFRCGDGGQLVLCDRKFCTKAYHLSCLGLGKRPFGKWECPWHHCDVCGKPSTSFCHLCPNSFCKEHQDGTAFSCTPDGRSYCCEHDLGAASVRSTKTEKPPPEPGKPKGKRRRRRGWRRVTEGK
It counts as biochemical.

Experiment [13] deals with FAD-linked sulfhydryl oxidase ALR (Homo sapiens, UniProt P55789). The experiment can be described thus: inhibitors of human ALR sulfhydryl oxidase, dose response, biochemical, H2O2 detection, luminescence, cherry-pick (AID 493248).
Experiment [14] relates to BJ. Briefly: cytotoxicity toward BJ-TERT-LT-ST fibroblasts, dose response, cell-based, RAS-independent, luminescence (AID 1935).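 Further: BJ fibroblasts immortalized with TERT plus LT and ST oncogenes.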 Type of experiment: functional. As to conditions: Homo sapiens.
Experiment [15] deals with BJ. Briefly: cytotoxicity toward BJ-TERT fibroblasts, dose response, cell-based, RAS-independent, luminescence (AID 1933). It counts as functional. The following applies: Homo sapiens.
The test system of experiment [16] is BJ. Briefly: cytotoxicity toward Ras-transformed BJeLR fibroblasts, dose response, cell-based, alamar blue fluorescence, cherrypicked samples (AID 2631).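 Further: confirmatory dose-response assay in RAS-dependent BJ fibroblasts engineered with TERT, LT and ST, with cytotoxicity read by fluorescence.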 As to conditions: Homo sapiens. It counts as functional.
A short description of experiment [17]: cytotoxicity toward DRD oncogenic fibroblasts, dose response, cell-based, non-viral oncogenic, luminescence (AID 1934). Type of experiment: functional. The following applies: Homo sapiens.
Experiment [18] relates to BJ. Briefly: cells. Type of experiment: functional, cell-based. As to conditions: Homo sapiens.
Experiment [19] is described as follows: intracellular Trypanosoma cruzi inhibitors in host cells – cell-based, plate reader, cherry-pick samples, set 3, dose response (AID 651818).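 Further: compounds incubated with infected cells for about four days.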 It counts as functional.

Structures are written as SMILES. Activity calls are given as the source filed them.

Sequence of Estrogen receptor beta (Q92731 whole entry): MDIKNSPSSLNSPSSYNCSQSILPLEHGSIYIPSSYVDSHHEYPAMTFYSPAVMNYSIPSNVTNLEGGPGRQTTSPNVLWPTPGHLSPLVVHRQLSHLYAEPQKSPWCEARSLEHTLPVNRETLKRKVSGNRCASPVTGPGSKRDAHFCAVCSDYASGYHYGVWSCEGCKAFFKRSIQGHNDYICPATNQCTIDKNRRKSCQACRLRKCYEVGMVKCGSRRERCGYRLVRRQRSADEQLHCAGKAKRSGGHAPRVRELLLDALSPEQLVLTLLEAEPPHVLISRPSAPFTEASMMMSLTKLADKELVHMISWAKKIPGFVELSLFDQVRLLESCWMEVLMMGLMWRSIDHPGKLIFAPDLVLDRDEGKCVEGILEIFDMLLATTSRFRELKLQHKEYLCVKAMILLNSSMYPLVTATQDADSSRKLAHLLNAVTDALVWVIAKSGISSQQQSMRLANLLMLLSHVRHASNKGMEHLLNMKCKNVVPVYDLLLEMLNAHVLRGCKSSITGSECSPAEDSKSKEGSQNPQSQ
Sequence of Ras and Rab interactor 1/Tyrosine-protein kinase ABL1 (P00519 whole entry): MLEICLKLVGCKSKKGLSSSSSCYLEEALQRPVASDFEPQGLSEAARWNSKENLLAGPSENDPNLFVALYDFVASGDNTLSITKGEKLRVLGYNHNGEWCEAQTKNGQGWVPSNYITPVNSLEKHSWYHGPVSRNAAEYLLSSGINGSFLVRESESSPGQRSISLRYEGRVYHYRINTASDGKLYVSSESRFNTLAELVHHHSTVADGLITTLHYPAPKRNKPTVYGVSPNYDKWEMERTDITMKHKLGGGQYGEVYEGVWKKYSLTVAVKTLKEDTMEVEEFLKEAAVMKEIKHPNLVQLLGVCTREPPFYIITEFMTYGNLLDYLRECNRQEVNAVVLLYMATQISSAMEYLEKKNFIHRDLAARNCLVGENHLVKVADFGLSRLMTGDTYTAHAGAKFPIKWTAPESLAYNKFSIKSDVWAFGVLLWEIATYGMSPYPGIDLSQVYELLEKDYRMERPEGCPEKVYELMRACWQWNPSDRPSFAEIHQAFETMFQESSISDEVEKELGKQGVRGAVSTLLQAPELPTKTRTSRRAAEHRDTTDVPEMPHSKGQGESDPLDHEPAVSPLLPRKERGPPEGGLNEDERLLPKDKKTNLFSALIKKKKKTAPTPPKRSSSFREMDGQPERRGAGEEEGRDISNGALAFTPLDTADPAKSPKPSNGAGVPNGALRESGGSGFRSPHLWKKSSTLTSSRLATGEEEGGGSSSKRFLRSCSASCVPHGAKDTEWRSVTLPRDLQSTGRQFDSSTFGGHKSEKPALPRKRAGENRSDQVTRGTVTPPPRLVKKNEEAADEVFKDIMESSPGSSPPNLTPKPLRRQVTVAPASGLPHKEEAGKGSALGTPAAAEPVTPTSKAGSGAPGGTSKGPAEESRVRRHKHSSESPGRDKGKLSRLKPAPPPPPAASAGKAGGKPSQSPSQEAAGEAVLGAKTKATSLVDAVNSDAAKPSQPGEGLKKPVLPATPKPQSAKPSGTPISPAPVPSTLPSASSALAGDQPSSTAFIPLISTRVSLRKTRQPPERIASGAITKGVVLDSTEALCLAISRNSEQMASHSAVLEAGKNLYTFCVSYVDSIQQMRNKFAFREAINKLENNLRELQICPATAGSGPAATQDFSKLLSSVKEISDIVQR
Sequence of Ras and Rab interactor 1/Tyrosine-protein kinase ABL1 (Q13671 whole entry): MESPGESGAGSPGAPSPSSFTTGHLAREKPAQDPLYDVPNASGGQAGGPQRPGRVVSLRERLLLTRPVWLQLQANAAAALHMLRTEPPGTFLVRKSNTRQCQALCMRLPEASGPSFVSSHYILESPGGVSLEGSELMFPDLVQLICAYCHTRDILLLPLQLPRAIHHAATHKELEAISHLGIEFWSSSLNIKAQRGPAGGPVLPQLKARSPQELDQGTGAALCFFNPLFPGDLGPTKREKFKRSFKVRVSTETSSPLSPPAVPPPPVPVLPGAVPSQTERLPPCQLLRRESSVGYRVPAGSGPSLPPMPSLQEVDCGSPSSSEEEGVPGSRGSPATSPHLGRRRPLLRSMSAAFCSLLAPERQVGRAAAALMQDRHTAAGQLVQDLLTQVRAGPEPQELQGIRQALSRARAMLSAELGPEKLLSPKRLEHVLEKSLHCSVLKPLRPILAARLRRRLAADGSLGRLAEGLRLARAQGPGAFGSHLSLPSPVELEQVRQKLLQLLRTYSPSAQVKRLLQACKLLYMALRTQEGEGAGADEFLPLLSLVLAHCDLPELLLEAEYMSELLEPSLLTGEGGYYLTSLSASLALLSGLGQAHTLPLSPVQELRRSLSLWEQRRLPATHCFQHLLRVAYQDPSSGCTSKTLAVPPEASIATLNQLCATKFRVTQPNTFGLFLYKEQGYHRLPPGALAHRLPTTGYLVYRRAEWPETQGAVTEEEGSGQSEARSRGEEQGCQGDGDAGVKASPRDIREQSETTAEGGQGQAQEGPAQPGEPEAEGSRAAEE
Sequence of Eukaryotic translation initiation factor 4E (P63073 whole entry): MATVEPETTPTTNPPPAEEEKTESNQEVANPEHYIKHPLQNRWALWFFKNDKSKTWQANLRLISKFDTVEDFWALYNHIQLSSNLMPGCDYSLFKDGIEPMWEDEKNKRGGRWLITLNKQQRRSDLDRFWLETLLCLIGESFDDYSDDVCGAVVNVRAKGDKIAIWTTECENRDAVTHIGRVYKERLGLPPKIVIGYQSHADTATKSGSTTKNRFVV
Sequence of Voltage-dependent T-type calcium channel subunit alpha-1H (O95180 whole entry): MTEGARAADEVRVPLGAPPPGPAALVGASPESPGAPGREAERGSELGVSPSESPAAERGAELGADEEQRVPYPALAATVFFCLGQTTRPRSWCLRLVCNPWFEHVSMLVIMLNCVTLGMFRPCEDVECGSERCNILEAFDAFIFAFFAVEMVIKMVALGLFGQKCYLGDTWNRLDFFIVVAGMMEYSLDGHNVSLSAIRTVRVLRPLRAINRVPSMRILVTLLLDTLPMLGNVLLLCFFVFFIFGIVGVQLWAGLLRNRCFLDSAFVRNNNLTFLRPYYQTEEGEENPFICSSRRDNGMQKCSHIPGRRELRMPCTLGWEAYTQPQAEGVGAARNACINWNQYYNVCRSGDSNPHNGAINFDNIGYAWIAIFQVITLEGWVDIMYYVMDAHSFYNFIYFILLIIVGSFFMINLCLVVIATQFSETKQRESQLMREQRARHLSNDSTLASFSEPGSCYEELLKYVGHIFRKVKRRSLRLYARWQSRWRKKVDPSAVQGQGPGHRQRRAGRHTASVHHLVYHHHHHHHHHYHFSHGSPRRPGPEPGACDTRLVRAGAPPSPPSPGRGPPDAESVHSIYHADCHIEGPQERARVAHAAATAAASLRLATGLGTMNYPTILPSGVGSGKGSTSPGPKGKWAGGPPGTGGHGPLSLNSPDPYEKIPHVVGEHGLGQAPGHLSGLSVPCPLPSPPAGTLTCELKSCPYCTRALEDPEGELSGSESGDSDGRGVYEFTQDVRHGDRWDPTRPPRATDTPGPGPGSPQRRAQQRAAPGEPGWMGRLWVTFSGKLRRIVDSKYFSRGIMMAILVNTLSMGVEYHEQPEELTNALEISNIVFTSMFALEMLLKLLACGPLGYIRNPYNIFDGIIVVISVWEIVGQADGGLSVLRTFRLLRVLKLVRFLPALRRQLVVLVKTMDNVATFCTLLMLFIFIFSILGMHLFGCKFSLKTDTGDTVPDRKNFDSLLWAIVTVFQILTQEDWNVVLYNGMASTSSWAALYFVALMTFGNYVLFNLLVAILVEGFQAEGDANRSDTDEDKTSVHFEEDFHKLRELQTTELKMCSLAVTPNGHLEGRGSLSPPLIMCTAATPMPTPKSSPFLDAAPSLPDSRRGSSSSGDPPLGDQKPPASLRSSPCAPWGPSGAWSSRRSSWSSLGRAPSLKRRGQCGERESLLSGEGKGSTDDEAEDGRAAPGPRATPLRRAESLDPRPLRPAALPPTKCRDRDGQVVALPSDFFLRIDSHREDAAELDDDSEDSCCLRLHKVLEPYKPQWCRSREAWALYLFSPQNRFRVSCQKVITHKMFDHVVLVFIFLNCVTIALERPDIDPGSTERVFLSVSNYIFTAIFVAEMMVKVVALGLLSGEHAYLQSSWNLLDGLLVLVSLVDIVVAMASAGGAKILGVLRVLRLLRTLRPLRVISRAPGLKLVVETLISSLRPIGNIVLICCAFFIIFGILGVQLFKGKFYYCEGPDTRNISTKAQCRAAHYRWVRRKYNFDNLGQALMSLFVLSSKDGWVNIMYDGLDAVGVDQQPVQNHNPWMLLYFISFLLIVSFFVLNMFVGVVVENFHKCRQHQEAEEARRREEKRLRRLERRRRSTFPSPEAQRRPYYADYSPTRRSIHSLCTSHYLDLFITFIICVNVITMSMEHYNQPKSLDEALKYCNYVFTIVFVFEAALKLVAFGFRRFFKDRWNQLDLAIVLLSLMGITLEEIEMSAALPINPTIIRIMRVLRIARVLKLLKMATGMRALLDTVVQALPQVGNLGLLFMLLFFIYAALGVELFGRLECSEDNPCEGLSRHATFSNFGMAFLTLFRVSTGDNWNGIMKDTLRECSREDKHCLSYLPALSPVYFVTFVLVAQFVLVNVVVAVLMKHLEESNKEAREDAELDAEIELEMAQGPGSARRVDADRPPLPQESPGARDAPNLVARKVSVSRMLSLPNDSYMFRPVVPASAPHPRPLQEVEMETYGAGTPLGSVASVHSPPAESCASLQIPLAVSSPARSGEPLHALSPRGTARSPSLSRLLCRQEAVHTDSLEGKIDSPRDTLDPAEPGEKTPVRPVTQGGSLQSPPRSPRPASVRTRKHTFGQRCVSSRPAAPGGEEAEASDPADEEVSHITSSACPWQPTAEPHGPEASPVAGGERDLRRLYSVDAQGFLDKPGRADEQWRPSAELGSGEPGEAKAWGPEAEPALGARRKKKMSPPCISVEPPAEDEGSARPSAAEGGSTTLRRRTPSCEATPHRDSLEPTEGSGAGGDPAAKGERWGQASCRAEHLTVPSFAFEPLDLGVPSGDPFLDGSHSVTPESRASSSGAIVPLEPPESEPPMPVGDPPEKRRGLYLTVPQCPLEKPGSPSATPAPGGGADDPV

Turning to `COC(=O)c1ccc(CSc2nnc(-c3c[nH]c4ccccc34)n2C)o1`, in experiment [1], the IC50 was 13.8 µM (inactive).
Regarding `CCc1cccc(NC(=O)CN2C(=O)NC3(CCCCCCC3)C2=O)c1`, the AC50 in experiment [2] was > 100 µM (inactive).
`CCCCN=C(S)Nc1ccc2nc(N3CCN(CC)CC3)cc(C)c2c1`: the half-maximal activity concentration (AC50) in experiment [3] was 25.9 µM (active).
As to `COC(=O)C1=C(C(=O)OC)SC(=C2C(=S)C(C)(C)N(C(=O)C3CC3)c3ccccc32)S1`, the IC50 in [4] was 6.47 µM (active).
As for `CCOC(=O)c1c(C)n(C(=O)c2ccco2)c(=O)n1C(=O)c1ccco1`, the results for the IC50 in [5] and in [1] were 0.533 µM (active) and 11 µM (inactive), respectively.
With `Cc1cccc(S(=O)(=O)Nc2nc3ccccc3nc2Nc2cccc(C(=O)O)c2)c1`, the AC50 in experiment [2] is 91.1 µM (active).
For the compound `O=S(=O)(NCCc1ccc(F)cc1)c1cccc2cccnc12`, the IC50 in [6] was 50 µM (inactive).
Turning to `O=C(CS(=O)(=O)Cc1ccccc1)Nc1ccc(S(=O)(=O)N2CCCCCC2)cc1`, the EC50 in experiment [7] was 4.62 µM (active). Also, the AC50 in experiment [2] is 80.8 µM (active).
Take `COc1ccc(C(c2sc3nc(C)nn3c2O)N2CCc3ccccc3C2)cc1` (centres undefined): the IC50 in experiment [4] was 9.88 µM (active).
Consider `O=C(NCc1ccco1)C1(S(=O)(=O)c2ccc(Cl)cc2)CC1`, for which the 50% inhibitory concentration (IC50) in experiment [8] is on record as > 50 µM (not active).
For `Cc1ccc2cc(C#N)c(NCCNC(S)=NCCCN(C)C)nc2c1C`, the CC50 in experiment [9] is 13.2 µM (active); in [11], 15.1 µM (active). Besides, in experiment [10], the IC50 was > 25 µM (active). In addition, in experiment [3], the AC50 was 16.9 µM (active).
As for `CCCCSc1cc(O)nc(N)n1`, the IC50 in [1] was 22.2 µM (inactive).
As to `CCN(CC)CCN=C(S)Nc1ccc2nc(N3CCCC3)cc(C)c2c1`, the AC50 in [3] was 3.9 µM (active); in [12] it was > 20 µM (inactive).
In the case of `CCOC(=O)CCC(NC(=O)c1ccc(NCN2C(=O)CCC2=O)cc1)C(=O)OCC` (centres undefined), in experiment [8], the IC50 was > 50 µM (not active).
For the compound `O=C(CN1C(=O)NC2(CCCc3ccccc32)C1=O)c1ccc(Br)cc1` (centres undefined), in [2], the AC50 was > 100 µM (inactive).
`O=C(c1cccn2c(=O)c3cc(Cl)ccc3nc12)N1CCN(Cc2ccc3c(c2)OCO3)CC1`: the IC50 in [6] was > 64 µM (inactive).
In the case of `Cc1ccc(C(=O)Nc2nc(-c3cccnc3)cs2)o1`, the IC50 in [8] was 21.2 µM (active).
Regarding `Cc1ccc(C(=O)N2CC(C)CC(C)C2)cc1NC1=NC2CS(=O)(=O)CC2S1` (centres undefined), the IC50 in experiment [1] is 14.3 µM (inactive).
For `O=C(O)c1ccc2c(c1)C(=O)N(c1ccc(Nc3ccccc3)cc1)C2=O`, the AC50 in experiment [13] is 25.8 µM (active); in experiment [2], > 100 µM (inactive).
With `O=C(OCC1CC(c2ccccn2)=NO1)c1ccc(Br)cc1` (centres undefined), in experiment [6], the IC50 is > 64 µM (inactive).
In the case of `COc1cc(NC(=O)c2cccs2)c(OC)cc1NC(=O)CCC(=O)Nc1ccc2ncccc2c1`, the EC50 is > 150 µM (not active) in [14]; > 150 µM (not active) in experiment [15]; 4.28 µM (inconclusive) in experiment [16]; > 150 µM (not active) in [17]; 8.14 µM (active) in experiment [18].
On to `Nc1ncnc2c1ncn2[C@@H]1O[C@H](CNCc2ccc(OCC(=O)Nc3ccccn3)cc2)[C@@H](O)[C@H]1O`, for which, in experiment [2], the AC50 was > 100 µM (inactive).
Consider `Nc1cc[n+]([O-])cc1CCc1ccccc1`, for which the IC50 in experiment [1] is 23.3 µM (inactive).
Same read-out and setting: then `O=C(Cc1ccc(NC(=O)C2CCN(C(=O)c3ccccc3)CC2)cc1)Nc1ccc(C(=O)N2CCOCC2)cc1`, with 6.48 µM (active).
For the compound `C[C@H](CO)N1C[C@H](C)[C@@H](CN(C)Cc2ccc(C(=O)Nc3ccccc3N)cc2)Oc2c(NC(=O)c3nc4ccccc4s3)cccc2C1=O`, the AC50 in [19] is 1.6 µM (active).
For `C[C@H]1CN([C@@H](C)CO)C(=O)c2cccc(NC(=O)CCCCCC(=O)Nc3ccccc3N)c2O[C@H]1CN(C)S(=O)(=O)c1ccc(Cl)cc1`, the half-maximal activity concentration (AC50) in experiment [19] was 3.53 µM (active).
Same read-out and setting: then `C[C@@H]1CCCCO[C@@H](CN(C)C(=O)Nc2ccc(C(F)(F)F)cc2)[C@@H](C)CN([C@H](C)CO)C(=O)c2cc(NC(=O)Cc3ccccc3)ccc2O1`, with 4.33 µM (active).
As to `C[C@H](CO)N1C[C@H](C)[C@H](CN(C)S(=O)(=O)c2cccs2)Oc2c(NC(=O)Nc3ccc(C(F)(F)F)cc3)cccc2C1=O`, the AC50 in experiment [19] is 4.19 µM (active).
